Biological target: T1, human mGluR5 (Homo sapiens, UniProt P41594)
T1 construct: expressed in transfected cells; host or cells: HEK cells, H10H cell line
Assay: Potentiation of glutamate response in HEK cells transfected with human mGluR5 (H10H cell line), Ca2+ fluorescence, FDSS
Format: cell-based
Details: read-out: hmGluR5 EC50 (H10H cell line)
Description: Human embryonic kidney (HEK) cells transfected with rat mGluR5 were plated in clear bottom assay plates for assay in a Functional Drug Screening System (FDSS). In the alternative assay, HEK cells transfected with human mGluR5 (H10H cell line) were plated for assay in the FDSS. […] The cells were loaded with a Ca^2+-sensitive fluorescent dye (e.g., Fluo-4), and the plates were washed and placed in the FDSS instrument. After establishment of a fluorescence baseline for twelve seconds, the compounds of the present invention were added to the cells, and the response in cells was measured. Five minutes later, an mGluR5 agonist (e.g., glutamate, 3,5-dihydroxyphenylglycine, or quisqualate) was added to the cells, and the response of the cells was measured. Potentiation of the agonist response of mGluR5 by the compounds in the present invention was observed as an increase in response to non-maximal concentrations of agonist (here, glutamate) in the presence of compound compared to the response to agonist in the absence of compound.
The above described assay operated in two modes. In the first mode, a range of concentrations of the present compounds were added to cells, followed by a single fixed concentration of agonist. If a compound acted as a potentiator, an EC50 value for potentiation and a maximum extent of potentiation by the compound at this concentration of agonist was determined by non-linear curve fitting. In the second mode, several fixed concentrations of the present compounds were added to various wells on a plate, followed by a range of concentrations of agonist for each concentration of present compound; the EC50 values for the agonist at each concentration of compound were determined by non-linear curve fitting. A decrease in the EC50 value of the agonist with increasing concentrations of the present compounds (a leftward shift of the agonist concentration-response curve) is an indication of the degree of mGluR5 potentiation at a given concentration of the present compound. An increase in the EC50 value of the agonist with increasing concentrations of the present compounds (a rightward shift of the agonist concentration-response curve) is an indication of the degree of mGluR5 antagonism at a given concentration of the present compound. The second mode also indicates whether the present compounds also affect the maximum response to mGluR5 to agonists.

T1 sequence (P41594 21-1212): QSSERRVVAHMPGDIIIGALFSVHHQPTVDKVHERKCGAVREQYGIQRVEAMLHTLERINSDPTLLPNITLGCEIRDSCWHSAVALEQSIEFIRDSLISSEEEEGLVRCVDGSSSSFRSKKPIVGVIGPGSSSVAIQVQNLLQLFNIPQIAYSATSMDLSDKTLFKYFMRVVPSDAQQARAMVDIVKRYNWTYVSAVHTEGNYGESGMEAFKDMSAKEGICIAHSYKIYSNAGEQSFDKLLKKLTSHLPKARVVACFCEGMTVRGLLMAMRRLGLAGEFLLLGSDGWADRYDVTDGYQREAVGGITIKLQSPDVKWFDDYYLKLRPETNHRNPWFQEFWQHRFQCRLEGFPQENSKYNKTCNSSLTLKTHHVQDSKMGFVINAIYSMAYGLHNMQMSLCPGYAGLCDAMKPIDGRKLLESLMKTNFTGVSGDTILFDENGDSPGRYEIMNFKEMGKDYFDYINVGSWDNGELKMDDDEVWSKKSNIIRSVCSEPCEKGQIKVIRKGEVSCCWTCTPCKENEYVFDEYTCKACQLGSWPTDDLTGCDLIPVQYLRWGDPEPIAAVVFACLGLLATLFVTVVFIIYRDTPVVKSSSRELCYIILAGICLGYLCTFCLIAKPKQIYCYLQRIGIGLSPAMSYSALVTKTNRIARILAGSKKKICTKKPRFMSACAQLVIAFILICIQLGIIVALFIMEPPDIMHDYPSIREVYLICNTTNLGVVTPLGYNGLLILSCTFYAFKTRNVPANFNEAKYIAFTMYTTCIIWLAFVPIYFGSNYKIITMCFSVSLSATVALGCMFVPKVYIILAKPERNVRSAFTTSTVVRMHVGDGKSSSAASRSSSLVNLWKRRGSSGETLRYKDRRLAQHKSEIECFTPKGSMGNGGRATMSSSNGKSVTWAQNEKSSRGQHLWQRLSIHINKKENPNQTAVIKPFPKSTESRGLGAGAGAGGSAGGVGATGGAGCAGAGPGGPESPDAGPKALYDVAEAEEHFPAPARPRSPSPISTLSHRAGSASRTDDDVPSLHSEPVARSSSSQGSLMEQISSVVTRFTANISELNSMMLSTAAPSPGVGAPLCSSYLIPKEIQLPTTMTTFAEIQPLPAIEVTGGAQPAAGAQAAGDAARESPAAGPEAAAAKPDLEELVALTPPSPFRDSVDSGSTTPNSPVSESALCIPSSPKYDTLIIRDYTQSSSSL

EC50 [nM]	Compound
1900	CC(NC(=O)c1ccc(COc2cccc(F)c2)nc1)C1CCCCO1 (stereo not shown)
> 10000	CC1(CCNC(=O)c2ccc(COc3cccc(F)c3)nc2)COC1
> 10000	O=C(N[C@@H]1C[C@@H]2CC[C@H]1C2)c1ccc(COc2cccc(F)c2)nc1
> 10000	CC(NC(=O)c1ccc(COc2cccc(F)c2)nc1)C(C)(C)O (stereo not shown)
> 10000	C[C@@H](N(C)C(=O)c1ccc(COc2cccc(F)c2)nc1)C(C)(C)C
730	O=C(N[C@H]1C[C@H]2CC[C@@H]1C2)c1ccc(COc2cccc(F)c2)nc1
2300	C[C@@H](NC(=O)c1ccc(COc2ccnc(Cl)c2)nc1)C(C)(C)C
1500	C[C@@H](NC(=O)c1ccc(COc2ccnc(Cl)c2)nc1)C1CCCCC1
> 10000	O=C(NC1(c2ccccn2)CC1)c1ccc(COc2cccc(F)c2)nc1
> 10000	O=C(NC1CC(O)(C(F)(F)F)C1)c1ccc(COc2cccc(F)c2)nc1 (stereo not shown) [drawing 173]

From patent publication US8969389B2, “Substituted 6-methylnicotinamides as mGluR5 positive allosteric modulators” (Vanderbilt University, priority 2010, dated 2015)
